# Tested on: porcine islets
# Test: Static glucose stimulation (SGS): in vitro insulin secretion of porcine islets in culture
# Format: cell-based
# From the text: Static glucose stimulation (SGS) is used to assess in vitro function of the porcine islets by exposing them to low and high concentrations of glucose and theophylline. Determination of the in vitro insulin secretory capacity is undertaken on both free islets (after 3 days in culture) and after their subsequent encapsulation.
# Keep the cells 3 days in culture before Static Glucose Stimulation (SGS). SGS involves exposure of the cells to low and high concentration of glucose to check insulin production. […]
# Islet endocrine function was assessed after 3 days in culture via static glucose stimulation.
# [1] = Incubated 24 hrs with 1.0 ug/ml IgF-1
molecule,measurement,setting,value
"CCN(CC)CC(=O)Nc1c(C)cccc1C [Lignocaine, reference compound]",Increase in insulin secretion in response to glucose challenge,"Lignocaine during digestion, after 3 days in culture",3 fold
same,Insulin secretion in response to 19.4 mM Glucose + 10 mM Theophyline after 3 days culture post isolation,"islets isolated by Collagenase digestion, with or without 1 mM Lignocaine",163.8 uU/hr/100 IEQ
"IgF-2: insulin-like growth factor expressed in many cell types, used in islet culture at 0.1 ug/ml",Effect on insulin production of porcine islet cells,"0.1 ug/ml IgF-2, initial exposure of 24 hrs, transient to 3 days post exposure",appeared to increase insulin production
same,Insulin secretion in response to 19.4 mM Glucose + 10 mM Theophyline after 3 days culture post isolation,"Incubated 24 hrs with 0.1 ug/ml IgF-2 day 1, control 75.2",105.8/100 IEQ
same,Insulin secretion in response to 19.4 mM Glucose + 10 mM Theophyline after 3 days culture post isolation,"Incubated 24 hrs with 0.1 ug/ml IgF-2 day 1, second table, control 39.8",32 uU/hr/100 IEQ
same,Insulin secretion in response to 19.4 mM Glucose + 10 mM Theophyline after 7 days culture post isolation,"Incubated 7 days with 0.1 ug/ml IgF-2, control 39.8",38.4 uU/hr/100 IEQ
same,Effect on insulin production of the islet cells in response to glucose,prolonged exposure to IgF-2 beyond 24 hrs,failed to increase
Human Insulin-like Growth Factor I [IgF-1],"Insulin secretion in response to 19.4 mM Glucose + 10 mM Theophylline, increase compared to control",3 days post IgF-1 exposure,1.5-fold increase
same,"Insulin secretion in response to 19.4 mM Glucose + 10 mM Theophylline, increase compared to control",14 days post IgF-1 exposure,1.3-fold increase
same,Concentration in culture sufficient to produce optimal insulin secretion during glucose challenge,IgF-1 tested at 0.1 and 1.0 ug/ml,0.1 µg/mL
same,Insulin secretion in response to 19.4 mM Glucose + 10 mM Theophylline after 3 days culture post isolation,"Incubated 24 hrs with 0.1 ug/ml IgF-1, concentration comparison, different islet preparation",58 uU/hr/100 IEQ
same,Insulin secretion in response to 19.4 mM Glucose + 10 mM Theophylline after 3 days culture post isolation,"Incubated 24 hrs with 0.1 ug/ml IgF-1 after isolation, control 75.2",236 uU/hr/100 IEQ
same,Insulin secretion in response to 19.4 mM Glucose + 10 mM Theophylline 7 days post isolation,[1],57.5 uU/hr/100 IEQ
same,Insulin secretion in response to 19.4 mM Glucose + 10 mM Theophylline after 3 days culture post isolation,[1],56.8 uU/hr/100 IEQ
same,Insulin secretion in response to 19.4 mM Glucose + 10 mM Theophylline after 3 days culture post isolation,"Incubated 3 days with 0.1 ug/ml IgF-1 without Nicotinamide, media without nicotinamide alone 55.9",47.6 uU/hr/100 IEQ
same,Insulin secretion in response to 19.4 mM Glucose + 10 mM Theophylline 7 days post isolation,Incubated 7 days with 0.1 ug/ml IgF-1,58 uU/hr/100 IEQ
same,Increase of insulin response to glucose,porcine islets in culture exposed to IgF-1,≤ 3 fold
same,Benefit of culturing the islets beyond a 24 hrs period post isolation,variations on the duration of IgF-1 exposure,no increased benefit
